# Source: publication PMC9440176, “Novel benzylidene benzofuranone analogues as potential anticancer agents: design, synthesis and in vitro evaluation based on CDK2 inhibition assays” (3 Biotech, 2022)
# Columns and labels:
# MCF-7 = assay: MTT cytotoxicity assay on MCF-7; assay type: cell-based; details: 24 h, read-out: Inhibition of cell proliferation, IC50, MCF-7
# Description: (§1) The monolayer cell culture was trypsinized and the cell count was adjusted to 5.0 × 10^5 cells/ml using respective media containing 10% FBS. To each well of the 96-well microtiter plate, 100 µL of the diluted cell suspension (50,000cells/well) was added. After 24 h, when a partial monolayer was formed, the supernatant was flicked off, the monolayer was then washed once again with the medium and 100 µL of different test concentrations of test drugs were added on to the partial monolayer in microtiter plates. The plates were then incubated at 37 °C for 24 h in 5% CO2 atmosphere. After incubation, the test solutions in the wells were discarded and 100 µL of MTT (5 mg/10 ml of MTT in PBS) was added to each well. The plates were then incubated for 4 h at 37 °C in 5% CO2 atmosphere. The supernatant was then removed and 100 µL of DMSO was added and the plates were gently shaken to solubilize the formed formazan. The absorbance was measured using a microtiter plate reader at a wavelength of 590 nm. The percentage growth inhibition was thus calculated using the following formula and the concentration of the test drug required to inhibit the cell growth by 50% (IC50) values is generated from the dose–response curves for each one of the cell lines (Meerloo et al. [2011]).
# (§2) The test compounds were screened for their in vitro cytotoxicity by MTT assay against two cancer cell lines, namely MCF-7, HCT-116 and normal epithelial kidney cells (Vero). Doxorubicin was used as a reference standard.
# HCT 116 = assay: MTT cytotoxicity assay on HCT 116; assay type: cell-based, Human; details: 24 h, read-out: Inhibition of cell proliferation, IC50, HCT 116
# Description: as §1, §2
# [1] = DPPH. free radical scavenging assay
# Description: DPPH. assay was performed using 96-well plate by serial dilution method. The dilution of methanolic stock solution of the test compounds and standard anti-oxidants was carried out to obtain concentration in the range of 3.9–1000 µM. Quercetin and ascorbic acid were used as standards. To a 100 μL of this solution, 100 μL of 200 µM DPPH^. in methanolic solution was added. The experiment was done in triplicate and the plate was then incubated for 30 min in the dark and later the absorbance was measured at 517 nm using Elisa reader. The percentage DPPH^. Scavenging was calculated using the formula, (Control Absorbance–Test Absorbance)*100/(Control Absorbance). The anti-oxidant activity of the test compounds was expressed in terms of concentration required for 50 percentage inhibition (IC50) (Collins [2005]).
# [2] = ABTS.+ radical scavenging assay
# Description: The assay was performed in a 96-well plate by serial dilution method. A 2 mM ABTS^.+ working solution was prepared in a phosphate buffer (Zheleva-Dimitrova et al [2010]).To this, 200 μL of aqueous potassium per sulfate (70 mM) solution was added and the solution was incubated for 24 h in the dark at room temperature to develop a blue-green color. To 30 μL of ABTS^.+ working solution, 50 μL of different concentrations (3.9–1000 μM) of the test sample solution and 170 μL of phosphate buffer (pH-7.4) were added in a well. The plate was then incubated in the dark at room temperature for 10 min. Then absorbance was measured at 690 nm using Elisa reader. Quercetin and ascorbic acid were used as standards. The percentage scavenging of ABTS^.+ was calculated using the formula, (Control Absorbance–Test Absorbance)*100/(Control Absorbance) and the anti-oxidant activity was expressed in terms of IC50 value.
# CDK2/Cyclin A = CDK2/Cyclin A (Homo sapiens, UniProt P24941); assay: CDK2/cyclin A inhibitory assay, Z'-LYTE FRET kinase assay; assay type: biochemical; details: concentration of 100 micro molar; 1000 ng/ml kinase, 1000 µM ATP
# Source text: Z’-LYTE® technology involves homogeneous assay design based on FRET and is a universal platform for both screening as well as profiling protein kinases. The assay uses a peptide substrate labeled with two different fluorophores, coumarin donor and fluorescein acceptor on each end. These two fluorophores make up a FRET pair, which allows the transfer of energy when both are present on the same molecule. The initial kinase reaction transfers the ϒ-phosphate of ATP to a tyrosine or serine/threonine residue on the substrate. In a secondary reaction, referred to as the development reaction, a site-specific protease recognizes and cleaves only non-phosphorylated peptide, while phosphorylated substrate remains uncleaved. […] Upon excitation of Coumarin at 400 nm, the FRET signal is measured as a ratio between the Coumarin donor emission at 445–460 nm and the fluorescein acceptor emission at 520–535 nm(Lebakken et al. [2007]).
# Initial ten-fold and two-fold dilutions of Kinase and ATP concentrations were used to choose the optimal Kinase and ATP concentration based on the % Phosphorylation.
# The assay was carried out according to the kit instructions (384 well format). Briefly, 5X kinase buffer [250 mM HEPES (pH 7.5), 50 mM MgCl2, 5 mM EGTA, 0.05% BRIJ-35] was diluted to 1X using distilled water. The phosphor peptide positive control (Z’-LYTE® Tyr 4 phospho-peptide) and the non-phosphorylated negative control (Z’-LYTE® Tyr 4 peptide) were then diluted to 1:500 with 1× kinase buffer to 2 μM. […] Working development solution was then made by diluting 12 μL of the provided stock solution with 388 μL of the provided development buffer. Aliquots (20 μL) of each peptide mixture were then added to the wells of a Corning 3914 solid white microplate in replicates of 8. The development reaction was initiated by the addition of 10 μL of working development-solution to all the wells. Further, the plates were allowed to incubate at room temperature for 60 min. Reactions were then stopped by the addition of 10 μL of stop solution (Jia et al. [2008]).
# Reactions were quantitated using a Tecan Robotic Microplate Reader. Reader control, blank subtraction, ratio metric calculations and finally graph plotting were carried out using Gen5™ Data Analysis Software.
# The CDK2/Cyclin A assay was carried out as per the manufacturer’s instruction using suitable controls and standard.
# The inhibitory assay was carried out using the stock of 10 mM in DMSO. Samples were further serially diluted to obtain concentrations of 100 μM. The concentrations were chosen based on the IC50 values obtained in the MTT assay. A total of 23 analogues were selected for the assay based on their antiproliferative activity. Further, selected compounds were screened and tested against the target CDK2/Cyclin A, and their % phosphorylation and % inhibition were recorded.
# [3] = tested on: normal epithelial kidney cells (Vero); assay: MTT cytotoxicity assay on Vero; assay type: cell-based; details: 24 h, read-out: Inhibition of cell proliferation, IC50, Vero
# Description: as §1, §2
SMILES,IC50 (MCF-7) [µM],IC50 (HCT 116) [µM],IC50 [1] [µM],IC50 [2] [µM],% inhibition on CDK2/cyclin A (CDK2/Cyclin A) [%],IC50 [3] [µM]
CCN1CC=C(c2c(OC)cc(OC)c3c2O/C(=C\c2ccccc2OC)C3=O)CC1 [NEA2],49.1,56.7,220 ± 2.77,179 ± 6,28.008,
COc1cc(OC)c(C2=CCN(C)CC2)c2c1C(=O)/C(=C/c1ccccc1)O2 [NMA1],67.8,86.9,151 ± 3.54,131 ± 1.74,27.654,187
COc1cc(OC)c(C2=CCN(C)CC2)c2c1C(=O)/C(=C/c1ccccc1C)O2 [NMA3],62.7,89,103 ± 7.78,89.8 ± 1.48,24.987,188
CCCN1CC=C(c2c(OC)cc(OC)c3c2O/C(=C\c2ccc4ccccc4c2)C3=O)CC1 [NPA1],75,94.3,133 ± 19.1,101 ± 2.81,16.089,166
CCN1CC=C(c2c(OC)cc(OC)c3c2O/C(=C\c2ccc(OC)c(OC)c2)C3=O)CC1 [NEA5],135,175,339 ± 9.65,> 1000,26.007,177
COc1ccc(/C=C2\Oc3c(c(OC)cc(OC)c3C3=CCN(C)CC3)C2=O)cc1OC [NMA6],98.5,123,258 ± 8.83,200 ± 4.43,26.113,> 200
CCN1CC=C(c2c(OC)cc(OC)c3c2O/C(=C\c2ccccc2Br)C3=O)CC1 [NEA3],28.1,33,85.5 ± 6.87,67.1 ± 3.2,35.559,
"O=C1O[C@H]([C@@H](O)CO)C(O)=C1O [Ascorbic acid, reference compound]",,,18.5 ± 1.38,24.1 ± 1.23,,
CCN1CC=C(c2c(OC)cc(OC)c3c2O/C(=C\c2ccc(Cl)cc2)C3=O)CC1 [NEA6],95.4,124,223 ± 4.87,198.18 ± 0.08,25.879,192
COc1cc(OC)c(C2=CCN(C(C)C)CC2)c2c1C(=O)/C(=C/c1ccccc1Br)O2 [NISOA2],103,125,381 ± 28.1,234 ± 8.45,39.811,> 200
"O=c1c(O)c(-c2ccc(O)c(O)c2)oc2cc(O)cc(O)c12 [Quercetin, reference compound]",,,31.42 ± 0.09,39 ± 0.58,,
CCCN1CC=C(c2c(OC)cc(OC)c3c2O/C(=C\c2ccc(N(C)C)cc2)C3=O)CC1 [NPA2],46.9,87.3,119 ± 12.9,99.3 ± 1.14,13.664,172
